Measurements published in patent US20250235460A1, “COMBINATION THERAPY USING GLUCOSE-DEPENDENT INSULINOTROPIC POLYPEPTIDE RECEPTOR ANTAGONIST COMPOUNDS AND GLP-1 RECEPTOR AGONIST COMPOUNDS” (Pfizer Inc., priority 2024, published 2025).

How the values were obtained:
human GLP-1R [1] = biological target: human GLP-1R (Homo sapiens, UniProt P43220, L260F); assay: CHO GLP-1R Clone C6 cAMP HTRF agonist assay (Assay 2, low receptor density); assay type: cell-based; details: for EC50: CHO GLP-1R clone C6, cAMP HTRF, geometric mean
Source text: In Table 5 and Table 6, assay data are presented to two (2) significant figures as the geometric mean (EC50s) and arithmetic mean (Emax) based on the number of replicates listed (Number). A blank cell means there was no data for that Example or the Emax was not calculated.

human GLP-1R [2] = biological target: human GLP-1R (Homo sapiens, UniProt P43220, G168S); assay: CHO GLP-1R Clone H6 cAMP HTRF agonist assay (Assay 1, high receptor density); assay type: cell-based; details: for EC50: CHO GLP-1R clone H6, cAMP HTRF, geometric mean; for Emax: read-out: Assay 1 Emax (%)
Summary of the method: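 Replicate runs were pooled. Potencies were averaged geometrically and maximal efficacies arithmetically, then rounded to two significant figures.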

[3] = CHO GLP-1R clone C6, arithmetic mean, relative to saturating GLP-1 (1 μM)
[4] = CHO GLP-1R clone H6, arithmetic mean, relative to saturating GLP-1 (1 μM)

human GLP-1R (Homo sapiens, UniProt P43220, L260F), sequence (P43220 24-463 L260F): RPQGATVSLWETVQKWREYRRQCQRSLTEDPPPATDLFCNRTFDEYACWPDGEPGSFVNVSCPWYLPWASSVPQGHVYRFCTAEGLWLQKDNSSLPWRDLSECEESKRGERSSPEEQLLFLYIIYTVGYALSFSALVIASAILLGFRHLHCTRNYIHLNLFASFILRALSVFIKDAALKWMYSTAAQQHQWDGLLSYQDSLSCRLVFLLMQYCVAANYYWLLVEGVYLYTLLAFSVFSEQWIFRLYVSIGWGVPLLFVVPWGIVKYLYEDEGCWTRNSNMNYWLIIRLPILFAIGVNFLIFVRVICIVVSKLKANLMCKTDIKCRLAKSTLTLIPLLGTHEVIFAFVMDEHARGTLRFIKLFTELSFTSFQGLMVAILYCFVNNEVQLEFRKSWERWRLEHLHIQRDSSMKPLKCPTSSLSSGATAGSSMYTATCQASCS
human GLP-1R (Homo sapiens, UniProt P43220, G168S), sequence (P43220 24-463 G168S): as the sequence (P43220 24-463 L260F) above, with G145S, F237L counted along it

Row | EC50 (human GLP-1R [1]) [nM] | Emax (human GLP-1R [1]; [3]) [%] | EC50 (human GLP-1R [2]) [nM] | Emax (human GLP-1R [2]; [4]) [%] | Assay 2 Emax (%) (human GLP-1R [1]; [3]) | Assay 1 Emax (%) (human GLP-1R [2]; [4]) | Compound
1 | 19 | 75 | 1 | 76 | – | – | Cn1c(CN2CCC(c3cccc(OCc4ccccc4OC(F)(F)F)n3)CC2)nc2ccc(C(=O)O)cc21 [Compound 229B, 1-methyl-2-{[4-(6-{[2-(trifluoromethoxy)benzyl]oxy}pyridin-2-yl)piperidin-1-yl]methyl}-1H-benzimidazole-6-carboxylic acid]
2 | 170 | 96 | 6.9 | 78 | – | – | COCC1(Cn2c(CN3CCC(c4cccc(OCc5ccc(Cl)cc5F)n4)CC3)nc3ccc(C(=O)O)cc32)CCC1 [Compound 347B, 2-[(4-{6-[(4-chloro-2-fluorobenzyl)oxy]pyridin-2-yl}piperidin-1-yl)methyl]-1-{[1-(methoxymethyl)cyclobutyl]methyl}-1H-benzimidazole-6-carboxylic acid]
3 | 3600 | 93 | 190 | 80 | – | – | Cc1ccn(CCn2c(CN3CCC(c4cccc(OCc5ccc(Cl)cc5F)n4)CC3)nc3ccc(C(=O)O)cc32)n1 [Compound 306B, 2-[(4-{6-[(4-chloro-2-fluorobenzyl)oxy]pyridin-2-yl}piperidin-1-yl)methyl]-1-[2-(3-methyl-1H-pyrazol-1-yl)ethyl]-1H-benzimidazole-6-carboxylic acid]
4 | 140 | 76 | 8.6 | 64 | – | – | Cn1c(CN2CCC(c3cccc(OCc4ccc(C(F)(F)F)cc4)n3)CC2)nc2ccc(C(=O)O)cc21 [Compound 232B, 1-methyl-2-{[4-(6-{[4-(trifluoromethyl)benzyl]oxy}pyridin-2-yl)piperidin-1-yl]methyl}-1H-benzimidazole-6-carboxylic acid]
5 | – | – | – | – | 89 | 95 | C[C@H]1CN(c2cccc(OCc3ccc(C#N)cc3)n2)CCN1Cc1nc2ccc(C(=O)O)cc2n1C[C@@H]1CCO1 [Compound 138B, 2-{[(2S)-4-{6-[(4-cyanobenzyl)oxy]pyridin-2-yl}-2-methylpiperazin-1-yl]methyl}-1-[(2S)-oxetan-2-ylmethyl]-1H-benzimidazole-6-carboxylic acid]
6 | 43 | 84 | 3.2 | 77 | – | – | COCCn1c(CN2CCN(c3cccc(OCc4ccc(Cl)cc4F)n3)[C@H](C)C2)nc2ccc(C(=O)O)cc21 [Compound 184B, 2-{[(3R)-4-{6-[(4-chloro-2-fluorobenzyl)oxy]pyridin-2-yl}-3-methylpiperazin-1-yl]methyl}-1-(2-methoxyethyl)-1H-benzimidazole-6-carboxylic acid]
7 | 270 | 92 | 14 | 80 | – | – | CC(C)c1cc(Cn2c(CN3CCC(c4cccc(OCc5ccc(Cl)cc5F)n4)CC3)nc3ccc(C(=O)O)cc32)on1 [Compound 281B, 2-[(4-{6-[(4-chloro-2-fluorobenzyl)oxy]pyridin-2-yl}piperidin-1-yl)methyl]-1-{[3-(propan-2-yl)-1,2-oxazol-5-yl]methyl}-1H-benzimidazole-6-carboxylic acid]
8 | 35 | 89 | 1.5 | 74 | – | – | CCn1cnnc1Cn1c(CN2CCN(c3cccc(OCc4ccc(Cl)cc4F)n3)C[C@@H]2C)nc2ccc(C(=O)O)cc21 [Compound 245B, 2-{[(2S)-4-{6-[(4-chloro-2-fluorobenzyl)oxy]pyridin-2-yl}-2-methylpiperazin-1-yl]methyl}-1-[(4-ethyl-4H-1,2,4-triazol-3-yl)methyl]-1H-benzimidazole-6-carboxylic acid]
9 | 22 | – | 0.5 | 73 | – | – | CCn1nncc1Cn1c(CN2CCN(c3cccc(OCc4ccc(C#N)cc4F)n3)CC2)nc2ccc(C(=O)O)cc21 [Compound 159B, 2-[(4-{6-[(4-cyano-2-fluorobenzyl)oxy]pyridin-2-yl}piperazin-1-yl)methyl]-1-[(1-ethyl-1H-1,2,3-triazol-5-yl)methyl]-1H-benzimidazole-6-carboxylic acid]
10 | 150 | 97 | 6.1 | 89 | – | – | Cn1cnnc1Cn1c(CN2CCC(c3cccc(OCc4ccc(Cl)cc4F)n3)CC2)nc2ccc(C(=O)O)cc21 [Compound 345B, 2-[(4-{6-[(4-chloro-2-fluorobenzyl)oxy]pyridin-2-yl}piperidin-1-yl)methyl]-1-[(4-methyl-4H-1,2,4-triazol-3-yl)methyl]-1H-benzimidazole-6-carboxylic acid]
11 | 5 | 94 | 0.47 | 77 | – | – | O=C(O)c1ccc2nc(CN3CCC(c4cccc(OCc5ccc(Cl)cc5F)n4)CC3)n(C[C@H]3CCO3)c2n1 [Compound 216B, 2-[(4-{6-[(4-chloro-2-fluorobenzyl)oxy]pyridin-2-yl}piperidin-1-yl)methyl]-3-[(2R)-oxetan-2-ylmethyl]-3H-imidazo[4,5-b]pyridine-5-carboxylic acid]
12 | 2000 | 82 | 63 | 78 | – | – | COC1CCN(CCn2c(CN3CCC(c4cccc(OCc5ccc(Cl)cc5F)n4)CC3)nc3ccc(C(=O)O)cc32)CC1 [Compound 331B, 2-[(4-{6-[(4-chloro-2-fluorobenzyl)oxy]pyridin-2-yl}piperidin-1-yl)methyl]-1-[2-(4-methoxypiperidin-1-yl)ethyl]-1H-benzimidazole-6-carboxylic acid]
13 | 10 | 120 | 0.99 | 95 | – | – | COCCn1c(CN2CC[C@H](c3cccc(OCc4ccc(Cl)cc4F)n3)[C@H](C)C2)nc2ccc(C(=O)O)cc21 (racemic) [Compound 192B, rac-2-{[(3R,4R)-4-{6-[(4-chloro-2-fluorobenzyl)oxy]pyridin-2-yl}-3-methylpiperidin-1-yl]methyl}-1-(2-methoxyethyl)-1H-benzimidazole-6-carboxylic acid]
14 | 230 | 77 | 8.1 | 64 | – | – | O=C(O)c1ccc2nc(CN3CCC(c4cccc(OCc5ccc(Cl)cc5F)n4)CC3)n(Cc3ccc(Cl)cn3)c2c1 [Compound 277B, 2-[(4-{6-[(4-chloro-2-fluorobenzyl)oxy]pyridin-2-yl}piperidin-1-yl)methyl]-1-[(5-chloropyridin-2-yl)methyl]-1H-benzimidazole-6-carboxylic acid]
15 | – | 81 | – | 73 | – | – | N#Cc1ccc(COc2nc(C3CCN(Cc4nc5ccc(C(=O)O)cc5n4CC4CCOC4)CC3)ccc2F)cc1 (centres unmarked) [Compound 361B, 2-[(4-{6-[(4-cyanobenzyl)oxy]-5-fluoropyridin-2-yl}piperidin-1-yl)methyl]-1-(tetrahydrofuran-3-ylmethyl)-1H-benzimidazole-6-carboxylic acid]
16 | 39 | 88 | 3.2 | 68 | – | – | CCn1cnnc1Cn1c(CN2CCC(c3cccc(OCc4ccc(Cl)cc4F)n3)CC2)nc2ccc(C(=O)O)cc21 [Compound 237B, 2-[(4-{6-[(4-chloro-2-fluorobenzyl)oxy]pyridin-2-yl}piperidin-1-yl)methyl]-1-[(4-ethyl-4H-1,2,4-triazol-3-yl)methyl]-1H-benzimidazole-6-carboxylic acid]
17 | 220 | 93 | 8.1 | 74 | – | – | COC[C@@H]1C[C@H]1Cn1c(CN2CCC(c3cccc(OCc4ccc(Cl)cc4F)n3)CC2)nc2ccc(C(=O)O)cc21 [Compound 197B, 2-[(4-{6-[(4-chloro-2-fluorobenzyl)oxy]pyridin-2-yl}piperidin-1-yl)methyl]-1-{[(1R,2R)-2-(methoxymethyl)cyclopropyl]methyl}-1H-benzimidazole-6-carboxylic acid]
18 | 270 | – | 12 | 64 | – | – | C[C@H]1CN(c2cccc(OCc3ccc(C#N)cc3)n2)CCN1Cc1nc2ccc(C(=O)O)cc2n1CC1CCCO1 (stereo partly drawn) [Compound 362B, 2-{[(2S)-4-{6-[(4-cyanobenzyl)oxy]pyridin-2-yl}-2-methylpiperazin-1-yl]methyl}-1-(tetrahydrofuran-2-ylmethyl)-1H-benzimidazole-6-carboxylic acid]
19 | 4400 | 110 | 110 | 68 | – | – | CO[C@H]1C[C@@H](Cn2c(CN3CCC(c4cccc(OCc5ccc(Cl)cc5F)n4)CC3)nc3ccc(C(=O)O)cc32)C1 [Compound 195B, 2-[(4-{6-[(4-chloro-2-fluorobenzyl)oxy]pyridin-2-yl}piperidin-1-yl)methyl]-1-[(cis-3-methoxycyclobutyl)methyl]-1H-benzimidazole-6-carboxylic acid]
20 | – | 89 | 3.4 | 73 | – | – | C[C@H]1CN(c2cccc(OCc3ccc(C#N)cc3F)n2)CCN1Cc1nc2ccc(C(=O)O)nc2n1Cc1ncco1 [Compound 215B, 2-{[(2S)-4-{6-[(4-cyano-2-fluorobenzyl)oxy]pyridin-2-yl}-2-methylpiperazin-1-yl]methyl}-3-(1,3-oxazol-2-ylmethyl)-3H-imidazo [4,5-b]pyridine-5-carboxylic acid]
21 | 460 | 66 | 31 | 81 | – | – | Cc1nnc(Cn2c(CN3CCC(c4cccc(OCc5ccc(Cl)cc5F)n4)CC3)nc3ccc(C(=O)O)cc32)n1C [Compound 244B, 2-[(4-{6-[(4-chloro-2-fluorobenzyl)oxy]pyridin-2-yl}piperidin-1-yl)methyl]-1-[(4,5-dimethyl-4H-1,2,4-triazol-3-yl)methyl]-1H-benzimidazole-6-carboxylic acid]
